Reference: patent publication US8969554B2, “6-acyl-1,2,4-triazine-3,5-dione derivative and herbicides” (Kumiai Chemical Industry Co., Ltd., priority 2010, dated 2015)

Assays:
Format in all cases: in vivo
Echinochloa crus-galli [1] = assay: Herbicidal activity by field soil treatment (Test example 2); parameters: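 index 0 to 10 in 10% steps of herbicidal effect with 10 meaning complete death and 0 below 10%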; conditions: 1000 g effective component per hectare, day 21 after the treatment
In short: (§1)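 Pre-covered sown seed in field-soil pots (80 cm^2) got a soil-surface application of 1000 g/ha active ingredient, sprayed as a diluted wettable powder at 1000 L/ha water volume. Greenhouse-grown; herbicidal activity graded by criteria at 21 days post-application.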

Indian millet [2] = assay: as above; parameters: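 index 0 to 10 in 10% steps of herbicidal effect with 10 meaning complete death and 0 below 10%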; conditions: 1000 g effective component per hectare, day 21 after the treatment
In short: as §1

foxtail = assay: as above; conditions: 1000 g effective component per hectare, day 21 after the treatment;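 further: index 0 to 10 in 10% steps of herbicidal effect with 10 meaning complete death and 0 below 10%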
Procedure: [table] Test for Determining Herbicidal Activity by Field Soil Treatment A 80 cm^2 wide plastic pot was filled with a field soil and seeds of each of Echinochloa crus-galli, foxtail, Indian millet, and A. retroflexus were sowed and then covered with soil. The wettable powder produced with reference to the Formulation example 1 was diluted water, and applied on the soil surface by using a small sprayer in an amount of 1000 liters per hectare so that the effective component is 1000 g per hectare. After that, the plants were cultivated in a greenhouse, and on day 21 after the treatment, evaluation was made by the criteria described in Table 72 for determining the herbicidal effects.

A. retroflexus [3] = assay: Herbicidal activity by field foliage treatment (Test example 3); parameters: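 index 0 to 10 in 10% steps of herbicidal effect with 10 meaning complete death and 0 below 10%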; conditions: 1000 g effective component per hectare, day 14 after the treatment
In short: (§2)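 Greenhouse foliar treatment at 1000 g a.i./ha of 2-week-old plants; herbicidal score at day 14.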

Indian millet [4] = assay: as above; parameters: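 index 0 to 10 in 10% steps of herbicidal effect with 10 meaning complete death and 0 below 10%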; conditions: 1000 g effective component per hectare, day 14 after the treatment
In short: as §2

Echinochloa crus-galli [5] = assay: as above; parameters: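 index 0 to 10 in 10% steps of herbicidal effect with 10 meaning complete death and 0 below 10%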; conditions: 1000 g effective component per hectare, day 14 after the treatment
In short: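 Herbicidal effect was rated on day 14 following a foliar spray of 1000 g active ingredient per hectare, applied as water-diluted wettable powder at 1000 L/ha. Plants had been raised for 2 weeks in field soil under greenhouse conditions before spraying.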

Echinochloa oryzicola = assay: Herbicidal activity by paddy field soil treatment (Test Example 1); parameters: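 index 0 to 10 in 10% steps of herbicidal effect with 10 meaning complete death and 0 below 10%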; conditions: 1000 g of effective component per hectare, evaluated on day 21 after the treatment, criteria of Table 72
In short: (§3)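 Using sown, 3 cm-flooded paddy soil pots, we apply diluted wettable powder to the water on day 1 post-sowing (1000 g active/ha), keep plants in a greenhouse, and grade herbicidal effects 21 days post-treatment.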

Monochoria vaginalis = assay: as above; parameters: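 index 0 to 10 in 10% steps of herbicidal effect with 10 meaning complete death and 0 below 10%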; conditions: 1000 g of effective component per hectare, evaluated on day 21 after the treatment, criteria of Table 72
In short: as §3

Scirpus juncoides Rocxb. = assay: as above; parameters: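 index 0 to 10 in 10% steps of herbicidal effect with 10 meaning complete death and 0 below 10%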; conditions: applied on water surface, 1000 g of effective component per hectare, day 21 after the treatment
In short: as §3

A. retroflexus [6] = assay: Herbicidal activity by field soil treatment (Test example 2); parameters: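 index 0 to 10 in 10% steps of herbicidal effect with 10 meaning complete death and 0 below 10%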; conditions: 1000 g effective component per hectare, day 21 after the treatment
In short: as §1

Setaria viridis = assay: Herbicidal activity by field foliage treatment (Test example 3); conditions: 1000 g effective component per hectare, day 14 after the treatment;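 further: index 0 to 10 in 10% steps of herbicidal effect with 10 meaning complete death and 0 below 10%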
Procedure: Test example 3 Test for Determining Herbicidal Activity by Field Foliage Treatment A 80 cm^2 wide plastic pot was filled with a field soil and seeds of each of Indian millet and A. retroflexus were sowed and then incubated for 2 weeks in a green house. The wettable powder produced with reference to the Formulation example 1 was diluted water, and applied from the air to entire body of the plant as foliage treatment by using a small sprayer in an amount of 1000 liters per hectare so that the effective component is 1000 g per hectare. After that, the plants were cultivated in a greenhouse, and on day 14 after the treatment, evaluation was made by the criteria described in Table 72 for determining the herbicidal effects.

| SMILES | herbicidal effect index, Echinochloa crus-galli (Echinochloa crus-galli [1]) | herbicidal effect index, Abutilon theophrasti (Indian millet [2]) | herbicidal effect index, Setaria viridis (foxtail) | herbicidal effect index, Amaranthus retroflexus (A. retroflexus [3]) | herbicidal effect index, Abutilon theophrasti (Indian millet [4]) | herbicidal effect index, Echinochloa crus-galli (Echinochloa crus-galli [5]) | Herbicidal effects index number, Echinochloa oryzicola (Echinochloa oryzicola) | Herbicidal effects index number, Monochoria vaginalis (Monochoria vaginalis) | herbicidal effect index, S. juncoides Rocxb. (Scirpus juncoides Rocxb.) | herbicidal effect index, Amaranthus retroflexus (A. retroflexus [6]) | herbicidal effect index, Setaria viridis (Setaria viridis) |
| --- | --- | --- | --- | --- | --- | --- | --- | --- | --- | --- | --- |
| COc1cccc(OC)c1-n1c(=O)c(C(=O)C2=C(O)CCCC2=O)nn(C)c1=O [Compound I-98] | 7 | 7 | 7 | 8 | 9 | 7 | – | – | – | – | – |
| Cn1nc(C(=O)C2=C(O)CCCC2=O)c(=O)n(-c2ccc(C(F)(F)F)cn2)c1=O [I-187] | 7 | 9 | – | 10 | 9 | 8 | 10 | 10 | 10 | 10 | 8 |
| Cn1nc(C(=O)C2=C(O)CCCC2=O)c(=O)n(-c2ccsc2)c1=O [I-199] | 9 | 10 | – | 9 | 9 | 10 | 9 | 8 | 9 | 10 | 8 |
| Cn1nc(C(=O)C2=C(O)CCCC2=O)c(=O)n(-c2cccc(-c3ccccc3)c2)c1=O [I-270] | 8 | – | 7 | 10 | 9 | 9 | 8 | 8 | 8 | 10 | – |
| Cn1c(=O)c(C(=O)C2=C(O)CCCC2=O)nn(-c2ccccn2)c1=O [I-274] | 7 | 8 | – | 9 | 8 | 9 | 8 | 8 | 4 | 7 | 8 |
| CCn1c(=O)c(C(=O)C2=C(O)CCCC2=O)nn(-c2ccccn2)c1=O [I-275] | 8 | 10 | – | 9 | 9 | 9 | 9 | 10 | 8 | 10 | 8 |
| Cn1nc(C(=O)C2=C(O)CCCC2=O)c(=O)n(-c2cc(F)c(F)c(F)c2)c1=O [I-302] | 7 | 10 | – | 10 | 10 | 10 | 10 | 10 | 10 | 10 | 10 |
| CON=C(C)Cn1c(=O)c(C(=O)C2=C(O)CCCC2=O)nn(C)c1=O [I-471] | 7 | 10 | – | 10 | 10 | 9 | 10 | 10 | 10 | 10 | 10 |
| CC(C)N(c1ccccc1)n1c(=O)c(C(=O)C2=C(O)CCCC2=O)nn(C)c1=O [I-475] | 7 | 7 | – | 9 | 8 | 9 | 10 | 10 | 10 | 7 | 7 |
| CC(Cn1c(=O)c(C(=O)C2=C(O)CCCC2=O)nn(C)c1=O)=NOC(C)C [I-479] | 9 | 10 | – | 10 | 9 | 9 | 10 | 10 | 10 | 10 | 7 |
| CSc1c(Cl)cc(-n2c(=O)c(C(=O)O)nn(C)c2=O)cc1Cl [V-300] | 7 | 9 | – | 10 | 9 | 8 | 10 | 10 | 10 | 10 | 8 |
| CON=C(C)Cn1c(=O)c(C(=O)O)nn(C)c1=O [V-365] | 7 | 10 | – | 10 | 10 | 9 | 10 | 10 | 10 | 10 | 10 |
| CC(C)N(c1ccccc1)n1c(=O)c(C(=O)O)nn(C)c1=O [V-369] | 7 | 7 | – | 9 | 8 | 9 | 10 | 10 | 10 | 7 | 7 |
| Cn1nc(C(=O)C2=C(O)C(C)(C)CCC2=O)c(=O)n(-c2ccccc2)c1=O [VI-5] | 8 | 10 | – | 10 | 10 | 10 | 10 | 10 | 10 | 10 | 10 |
